Measured values as given in PubChem BioAssay (NCI).
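Following 48 hours of exposure in 96-well plates, responses at five concentrations were used to interpolate endpoints linearly. The concentration for 50% growth inhibition is given as GI50. TGI denotes the concentration required for complete inhibition of growth.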

Assays:
Assay in all cases: inhibition of tumour cell growth, NCI panel, 48 h
IGROV1 ovarian = test system: IGROV1 ovarian
LOX IMVI melanoma = test system: LOX IMVI melanoma
EKVX NSCLC = test system: EKVX NSCLC
NCI-H522 lung = test system: NCI-H522 lung
SK-MEL-5 melanoma = test system: SK-MEL-5 melanoma
RPMI-8226 leukemia = test system: RPMI-8226 leukemia
CCRF-CEM leukemia = test system: CCRF-CEM leukemia
HL-60(TB) leukemia = test system: HL-60(TB) leukemia
OVCAR-3 ovarian = test system: OVCAR-3 ovarian
HOP-92 NSCLC = test system: HOP-92 NSCLC
NCI/ADR-RES ovarian = test system: NCI/ADR-RES ovarian
PC-3 prostate = test system: PC-3 prostate
DU-145 prostate = test system: DU-145 prostate
786-0 renal = test system: 786-0 renal
HCC-2998 colon = test system: HCC-2998 colon
SW-620 colon = test system: SW-620 colon
K-562 leukemia = test system: K-562 leukemia
A498 renal = test system: A498 renal
NCI-H23 lung = test system: NCI-H23 lung
SK-MEL-2 melanoma = test system: SK-MEL-2 melanoma
SF-268 CNS = test system: SF-268 CNS
U251 CNS = test system: U251 CNS
T-47D breast = test system: T-47D breast
NCI-H460 lung = test system: NCI-H460 lung
OVCAR-8 ovarian = test system: OVCAR-8 ovarian
MDA-MB-231 breast = test system: MDA-MB-231 breast
HT29 colon = test system: HT29 colon
HS 578T breast = test system: HS 578T breast
SF-295 CNS = test system: SF-295 CNS
HCT-116 colon = test system: HCT-116 colon
SN12C renal = test system: SN12C renal
SF-539 CNS = test system: SF-539 CNS
UACC-62 melanoma = test system: UACC-62 melanoma
OVCAR-4 ovarian = test system: OVCAR-4 ovarian
UACC-257 melanoma = test system: UACC-257 melanoma
SK-MEL-28 melanoma = test system: SK-MEL-28 melanoma
SNB-75 CNS = test system: SNB-75 CNS
UO-31 renal = test system: UO-31 renal
MCF7 breast = test system: MCF7 breast
SNB-19 CNS = test system: SNB-19 CNS
ACHN renal = test system: ACHN renal
RXF 393 renal = test system: RXF 393 renal
HCT-15 colon = test system: HCT-15 colon
TK-10 renal = test system: TK-10 renal
MDA-MB-435 = test system: MDA-MB-435
M14 melanoma = test system: M14 melanoma
SK-OV-3 ovarian = test system: SK-OV-3 ovarian
KM12 colon = test system: KM12 colon
CAKI-1 renal = test system: CAKI-1 renal
COLO 205 colon = test system: COLO 205 colon
SR leukemia = test system: SR leukemia
MOLT-4 leukemia = test system: MOLT-4 leukemia
MALME-3M melanoma = test system: MALME-3M melanoma
NCI-H226 lung = test system: NCI-H226 lung
A549 NSCLC = test system: A549 NSCLC
HOP-62 NSCLC = test system: HOP-62 NSCLC
BT-549 breast = test system: BT-549 breast

Compound `CC1(C)N=C(N)N=C(N)N1c1cccc(Br)c1` has a GI50 (IGROV1 ovarian) of 0.202 µM, a GI50 (LOX IMVI melanoma) of 0.146 µM and a TGI (LOX IMVI melanoma) greater than 100 µM. The GI50 (EKVX NSCLC) was 17.4 µM, the TGI (EKVX NSCLC) was greater than 100 µM and the GI50 (NCI-H522 lung) was 4.29 µM. For the same compound, the TGI (NCI-H522 lung) was greater than 100 µM, the GI50 (SK-MEL-5 melanoma) was 1.03 µM and the TGI (SK-MEL-5 melanoma) was greater than 100 µM. The GI50 (RPMI-8226 leukemia) was 6.81 µM, the TGI (RPMI-8226 leukemia) was greater than 100 µM and the GI50 (CCRF-CEM leukemia) was 2.24 µM. The TGI (CCRF-CEM leukemia) was greater than 100 µM, the GI50 (HL-60(TB) leukemia) was 0.491 µM and the TGI (HL-60(TB) leukemia) was greater than 73.8 µM. The GI50 (OVCAR-3 ovarian) was 6.56 µM, the TGI (OVCAR-3 ovarian) was greater than 100 µM and the GI50 (HOP-92 NSCLC) was greater than 100 µM. The TGI (HOP-92 NSCLC) was greater than 100 µM, the GI50 (NCI/ADR-RES ovarian) was greater than 63.5 µM and the TGI (NCI/ADR-RES ovarian) was greater than 100 µM. It also gave a GI50 (PC-3 prostate) of 0.212 µM, a TGI (PC-3 prostate) greater than 100 µM and a GI50 (DU-145 prostate) of 0.895 µM. For the same compound, the TGI (DU-145 prostate) was greater than 100 µM, the GI50 (786-0 renal) was 0.093 µM and the TGI (786-0 renal) was greater than 100 µM. It also gave a GI50 (HCC-2998 colon) of 0.777 µM, a TGI (HCC-2998 colon) greater than 45.5 µM and a GI50 (SW-620 colon) of 0.216 µM. For the same compound, the TGI (SW-620 colon) was greater than 100 µM, the GI50 (K-562 leukemia) was 0.0597 µM and the TGI (K-562 leukemia) was greater than 100 µM. For the same compound, the GI50 (A498 renal) was 15.9 µM, the TGI (A498 renal) was greater than 100 µM and the GI50 (NCI-H23 lung) was 0.564 µM. It also gave a TGI (NCI-H23 lung) greater than 100 µM, a GI50 (SK-MEL-2 melanoma) greater than 100 µM and a TGI (SK-MEL-2 melanoma) greater than 100 µM. For the same compound, the GI50 (SF-268 CNS) was 0.0541 µM, the TGI (SF-268 CNS) was greater than 100 µM and the GI50 (U251 CNS) was 0.321 µM. It also gave a TGI (U251 CNS) greater than 100 µM, a GI50 (T-47D breast) greater than 82.7 µM and a TGI (T-47D breast) greater than 100 µM. The GI50 (NCI-H460 lung) was 0.435 µM, the TGI (NCI-H460 lung) was greater than 100 µM and the GI50 (OVCAR-8 ovarian) was 0.228 µM. It also gave a TGI (OVCAR-8 ovarian) greater than 100 µM, a GI50 (MDA-MB-231 breast) greater than 100 µM and a TGI (MDA-MB-231 breast) greater than 100 µM. For the same compound, the GI50 (HT29 colon) was 0.255 µM, the TGI (HT29 colon) was greater than 100 µM and the GI50 (HS 578T breast) was greater than 30.4 µM. The TGI (HS 578T breast) was greater than 100 µM, the GI50 (SF-295 CNS) was 0.642 µM and the TGI (SF-295 CNS) was greater than 38 µM. It also gave a GI50 (HCT-116 colon) of 0.069 µM, a TGI (HCT-116 colon) greater than 100 µM and a GI50 (SN12C renal) of 4.09 µM. For the same compound, the TGI (SN12C renal) was greater than 100 µM, the GI50 (SF-539 CNS) was 0.393 µM and the TGI (SF-539 CNS) was greater than 100 µM. It also gave a GI50 (UACC-62 melanoma) of 1.93 µM, a TGI (UACC-62 melanoma) greater than 100 µM and a GI50 (OVCAR-4 ovarian) of 8.66 µM. For the same compound, the TGI (OVCAR-4 ovarian) was greater than 100 µM, the GI50 (UACC-257 melanoma) was greater than 92.4 µM and the TGI (UACC-257 melanoma) was greater than 100 µM. It also gave a GI50 (SK-MEL-28 melanoma) of 14 µM, a TGI (SK-MEL-28 melanoma) greater than 100 µM and a GI50 (SNB-75 CNS) greater than 59 µM. It also gave a TGI (SNB-75 CNS) greater than 100 µM, a GI50 (UO-31 renal) of 6.69 µM and a TGI (UO-31 renal) greater than 100 µM. It also gave a GI50 (MCF7 breast) of 0.665 µM, a TGI (MCF7 breast) greater than 100 µM and a GI50 (SNB-19 CNS) of 1.68 µM. The TGI (SNB-19 CNS) was greater than 100 µM, the GI50 (ACHN renal) was 0.786 µM and the TGI (ACHN renal) was greater than 100 µM. The GI50 (RXF 393 renal) was greater than 23.1 µM, the TGI (RXF 393 renal) was greater than 100 µM and the GI50 (HCT-15 colon) was 1.42 µM. It also gave a TGI (HCT-15 colon) greater than 100 µM, a TGI (TK-10 renal) greater than 100 µM and a GI50 (MDA-MB-435) of 0.0612 µM. The TGI (MDA-MB-435) was greater than 100 µM, the GI50 (M14 melanoma) was 0.558 µM and the TGI (M14 melanoma) was greater than 100 µM. The GI50 (SK-OV-3 ovarian) was 1.69 µM, the TGI (SK-OV-3 ovarian) was greater than 100 µM and the GI50 (KM12 colon) was 0.769 µM. For the same compound, the TGI (KM12 colon) was greater than 100 µM, the GI50 (CAKI-1 renal) was 41.9 µM and the TGI (CAKI-1 renal) was greater than 100 µM. For the same compound, the GI50 (COLO 205 colon) was 8.39 µM, the TGI (COLO 205 colon) was greater than 100 µM and the GI50 (SR leukemia) was 0.703 µM. It also gave a TGI (SR leukemia) greater than 100 µM, a GI50 (MOLT-4 leukemia) of 0.94 µM and a TGI (MOLT-4 leukemia) greater than 100 µM. It also gave a GI50 (MALME-3M melanoma) of 33.2 µM, a TGI (MALME-3M melanoma) greater than 100 µM and a TGI (NCI-H226 lung) greater than 100 µM. For the same compound, the GI50 (A549 NSCLC) was 0.469 µM, the TGI (A549 NSCLC) was greater than 100 µM and the GI50 (HOP-62 NSCLC) was 0.777 µM. For the same compound, the TGI (HOP-62 NSCLC) was greater than 100 µM, the GI50 (BT-549 breast) was 8.04 µM and the TGI (BT-549 breast) was greater than 100 µM.
